Assay results: patent publication US20210236698A1, “ANTIMICROBIAL LOCKING SOLUTIONS COMPRISING TAURINAMIDE DERIVATIVES AND BIOLOGICALLY ACCEPTABLE SALTS AND ACIDS, WITH THE ADDITION OF SMALL CONCENTRATIONS OF HEPARIN” (ND Partners, LLC, priority 2004, published 2021)

How the values were obtained:
[1] = system: red cells; assay type: cell-based
Source text: The trial results by Dr Allon were examined by researchers in a group of experiments at the Naval Blood Laboratory and Boston University Medical School. […] However, the researchers were not able to determine exactly how their results were relevant to the findings in the University of Alabama clinical trial.

[2] = Biocidal effectiveness of taurolidine solution with citrate/citric acid pH adjustment; conditions: citrates and citric acid, pH of end solution in the vicinity of 5.2 to 6.5
Source text: The concentration of taurolidine in such solutions is preferably in the range of from about 0.4 to about 5% by weight, depending upon the solubility of the compound. […] The approach creates a buffer system of citric acid/sodium citrate by adjustment of pH using sodium hydroxide. This buffer system also resists changes in the pH due to the oxidation of formaldehyde to formic acid.

[3] = Long term stability tests of taurolidine in solution; assay type: physicochemical; conditions: citric acid and sodium citrate in combination, versus solution prepared with PVP
Source text: In addition, citric acid is a known antioxidant. […] The composition employed in the practice of the present invention preferably also contains a pharmacologically acceptable carrier solution, such as, water, Ringer's solution, or saline.

| Compound | changes to blood in contact with solution [1] | biocidal effectiveness [2] | precipitation of solid taurolidine and reaction products from solution [3] |
| --- | --- | --- | --- |
| O=S1(=O)CCN(CN2CCS(=O)(=O)NC2)CN1 [taurolidine] | morphological changes to red cells | substantially increases | prevents or severely slows down |
| heparin | did not happen |  |  |
